What was measured:
[1] = test system: Staphylococcus epidermidis H 6966/08; test: Screen against bacteria, MIC/IC80; format: cell-based; details: SE
[2] = test system: Staphylococcus aureus CCM 4516/08; test: Screen against bacteria, MIC/IC80; format: cell-based; details: SA
[3] = test system: Candida lusitaniae 2446/l; test: In vitro antifungal activity, MIC by microdilution (NCCLS M27-A); details: CL
Procedure: (§1) In vitro antifungal activities of the compounds were evaluated on the collection of fungal strains deposited at the Department of Biological and Medical Sciences, Faculty of Pharmacy, Charles University, Czech Republic. All the isolates were maintained on Sabouraud dextrose agar prior to being tested.
(§2) Minimum inhibitory concentrations (MICs) were determined by the microdilution format of the NCCLS M27-A guidelines. […] RPMI 1640 (Sevapharma, Prague) medium supplemented with L-glutamine and buffered with 0.165 M morpholinepropanesulfonic acid to pH 7.0 was used as the test medium. The wells of the microdilution tray contained 100 μl of the RPMI 1640 medium with 2-fold serial dilutions of the compounds (1000 to 0.24 μmol/l for the new compounds) and 100 μl of inoculum suspension. Fungal inoculum in RPMI 1640 was prepared to give a final concentration of 5×103±0.2 cfu·ml-1. The trays were incubated at 35° C. and MICs were read visually for filamentous fungi and photometrically for yeasts as an optical density (OD) at 540 nm after 24 h and 48 h. The MICs were defined as 80% inhibition of the growth of control. MICs were determined twice and in duplicate. The deviations from the usually obtained were no higher than the nearest concentration value up and down the dilution scale.

[4] = test system: Aspergillus fumigatus 231; test: as above; details: AF
[5] = test system: Candida glabrata 20/l; test: as above; details: CG
[6] = test system: Candida albicans ATCC 90028; test: as above
Procedure: as §1, §2

[7] = test system: Enterococcus sp. J 14365/08; test: Screen against bacteria, MIC/IC80; format: cell-based; details: EF
[8] = test system: Pseudomonas aeruginosa CCM 1961; test: Screen against bacteria, MIC/IC80; format: cell-based; details: PA
[9] = test system: Candida parapsilosis ATCC 22019; test: In vitro antifungal activity, MIC by microdilution (NCCLS M27-A); details: CP
[10] = test system: Candida albicans ATCC 44859; test: as above
Procedure: as §1, §2

[11] = test system: Escherichia coli CCM4517; test: Screen against bacteria, MIC/IC80; format: cell-based; details: EC
[12] = test system: Absidia corymbifera 272; test: In vitro antifungal activity, MIC by microdilution (NCCLS M27-A); details: AC
[13] = test system: Candida krusei E28; test: as above
[14] = test system: Klebsiella pneumoniae D 11750/08; test: Screen against bacteria, MIC/IC80; format: cell-based; details: KP
[15] = test system: Trichophyton mentagrophytes 445; test: In vitro antifungal activity, MIC by microdilution (NCCLS M27-A); details: TM
[16] = test system: Klebsiella pneumoniae J 14368/08 ESBL-positive; test: Screen against bacteria, MIC/IC80; format: cell-based; details: KP-E
[17] = test system: Staphylococcus aureus H 5996/08 Methiciline-resistant; test: Screen against bacteria, MIC/IC80; format: cell-based; details: MRSA
[18] = test system: Candida tropicalis 156; test: In vitro antifungal activity, MIC by microdilution (NCCLS M27-A); details: CT
Procedure: as §1, §2

[19] = test system: Candida krusei ATCC 6258; test: as above

Compound	MIC/IC80 ([1]; 24 h)	MIC/IC80 ([1]; 48 h)	MIC/IC80 ([2]; 24 h)	MIC/IC80 ([2]; 48 h)	MIC/IC80 ([3]; 24 h)	MIC/IC80 ([3]; 48 h)	MIC/IC80 ([4]; 24 h)	MIC/IC80 ([4]; 48 h)	MIC/IC80 ([5]; 24 h)	MIC/IC80 ([5]; 48 h)	MIC/IC80 ([6]; CA2, 24 h)	MIC/IC80 ([6]; CA2, 48 h)	MIC/IC80 ([7]; 24 h)	MIC/IC80 ([7]; 48 h)	MIC/IC80 ([8]; 24 h)	MIC/IC80 ([8]; 48 h)	MIC/IC80 ([9]; 24 h)	MIC/IC80 ([9]; 48 h)	MIC/IC80 ([10]; CA1, 24 h)	MIC/IC80 ([10]; CA1, 48 h)	further results
CCOCCOC(=O)C(OC(=O)Cn1cc[n+](C)c1)c1ccccc1.[Br-] (centres unmarked) [KG818, RS-3-methyl-1-[1-(ethoxyethoxycarbonyl)-1-phenylmethoxycarbonylmethyl]imidazolium bromide]	>1000 µM	>1000 µM	>1000 µM	>1000 µM	>1000 µM	>1000 µM	>1000 µM	>1000 µM	>1000 µM	>1000 µM	>1000 µM	>1000 µM	>1000 µM	>1000 µM	>1000 µM	>1000 µM	>1000 µM	>1000 µM	>1000 µM	>1000 µM	MIC/IC80 ([11]; 24 h): >1000 µM; MIC/IC80 ([11]; 48 h): >1000 µM; MIC/IC80 ([12]; 24 h): >1000 µM; MIC/IC80 ([12]; 48 h): >1000 µM; MIC/IC80 ([13]; CK2, 24 h): >1000 µM; MIC/IC80 ([13]; CK2, 48 h): >1000 µM; MIC/IC80 ([14]; 24 h): >1000 µM; MIC/IC80 ([14]; 48 h): >1000 µM; MIC/IC80 ([15]; 72 h): >1000 µM; MIC/IC80 ([15]; 120 h): >1000 µM; MIC/IC80 ([16]; 24 h): >1000 µM; MIC/IC80 ([16]; 48 h): >1000 µM; MIC/IC80 ([17]; 24 h): >1000 µM; MIC/IC80 ([17]; 48 h): >1000 µM; MIC/IC80 ([18]; 24 h): >1000 µM; MIC/IC80 ([18]; 48 h): >1000 µM; MIC/IC80 ([19]; CK1, 24 h): >1000 µM; MIC/IC80 ([19]; CK1, 48 h): >1000 µM
CCOCCOC(=O)[C@@H](C)OC(=O)C[n+]1ccn(C)c1 [KG161, R-3-methyl-1-[1-(ethoxyethoxycarbonyl)-1-methylmethoxycarbonylmethyl]imidazolium bromide]	>1000 µM	>1000 µM	>1000 µM	>1000 µM	>1000 µM	>1000 µM	>1000 µM	>1000 µM	>1000 µM	>1000 µM	>1000 µM	>1000 µM	>1000 µM	>1000 µM	>1000 µM	>1000 µM	>1000 µM	>1000 µM	>1000 µM	>1000 µM	MIC/IC80 ([11]; 24 h): >1000 µM; MIC/IC80 ([11]; 48 h): >1000 µM; MIC/IC80 ([12]; 24 h): >1000 µM; MIC/IC80 ([12]; 48 h): >1000 µM; MIC/IC80 ([13]; CK2, 24 h): >1000 µM; MIC/IC80 ([13]; CK2, 48 h): >1000 µM; MIC/IC80 ([14]; 24 h): >1000 µM; MIC/IC80 ([14]; 48 h): >1000 µM; MIC/IC80 ([15]; 72 h): >1000 µM; MIC/IC80 ([15]; 120 h): >1000 µM; MIC/IC80 ([16]; 24 h): >1000 µM; MIC/IC80 ([16]; 48 h): >1000 µM; MIC/IC80 ([17]; 24 h): >1000 µM; MIC/IC80 ([17]; 48 h): >1000 µM; MIC/IC80 ([18]; 24 h): >1000 µM; MIC/IC80 ([18]; 48 h): >1000 µM; MIC/IC80 ([19]; CK1, 24 h): >1000 µM; MIC/IC80 ([19]; CK1, 48 h): >1000 µM
R-3-methyl-1-[1-(methoxycarbonyl)-1-phenylmethoxycarbonylmethyl]imidazolium octyl sulphate [KG87]	>1000 µM	>1000 µM	>1000 µM	>1000 µM	>1000 µM	>1000 µM	>1000 µM	>1000 µM	>1000 µM	>1000 µM	>1000 µM	>1000 µM	>1000 µM	>1000 µM	>1000 µM	>1000 µM	>1000 µM	>1000 µM	>1000 µM	>1000 µM	MIC/IC80 ([11]; 24 h): >1000 µM; MIC/IC80 ([11]; 48 h): >1000 µM; MIC/IC80 ([12]; 24 h): >1000 µM; MIC/IC80 ([12]; 48 h): >1000 µM; MIC/IC80 ([13]; CK2, 24 h): 1000 µM; MIC/IC80 ([13]; CK2, 48 h): >1000 µM; MIC/IC80 ([14]; 24 h): >1000 µM; MIC/IC80 ([14]; 48 h): >1000 µM; MIC/IC80 ([15]; 72 h): 1000 µM; MIC/IC80 ([15]; 120 h): >1000 µM; MIC/IC80 ([16]; 24 h): >1000 µM; MIC/IC80 ([16]; 48 h): >1000 µM; MIC/IC80 ([17]; 24 h): >1000 µM; MIC/IC80 ([17]; 48 h): >1000 µM; MIC/IC80 ([18]; 24 h): >1000 µM; MIC/IC80 ([18]; 48 h): >1000 µM; MIC/IC80 ([19]; CK1, 24 h): 1000 µM; MIC/IC80 ([19]; CK1, 48 h): >1000 µM
R-3-methyl-1-[1-(ethoxyethoxycarbonyl)-1-methylmethoxycarbonylmethyl]imidazolium octyl sulphate [KG173]	>1000 µM	>1000 µM	>1000 µM	>1000 µM	>1000 µM	>1000 µM	>1000 µM	>1000 µM	>1000 µM	>1000 µM	>1000 µM	>1000 µM	>1000 µM	>1000 µM	>1000 µM	>1000 µM	>1000 µM	>1000 µM	>1000 µM	>1000 µM	MIC/IC80 ([11]; 24 h): >1000 µM; MIC/IC80 ([11]; 48 h): >1000 µM; MIC/IC80 ([12]; 24 h): >1000 µM; MIC/IC80 ([12]; 48 h): >1000 µM; MIC/IC80 ([13]; CK2, 24 h): >1000 µM; MIC/IC80 ([13]; CK2, 48 h): >1000 µM; MIC/IC80 ([14]; 24 h): >1000 µM; MIC/IC80 ([14]; 48 h): >1000 µM; MIC/IC80 ([15]; 72 h): >1000 µM; MIC/IC80 ([15]; 120 h): >1000 µM; MIC/IC80 ([16]; 24 h): >1000 µM; MIC/IC80 ([16]; 48 h): >1000 µM; MIC/IC80 ([17]; 24 h): >1000 µM; MIC/IC80 ([17]; 48 h): >1000 µM; MIC/IC80 ([18]; 24 h): >1000 µM; MIC/IC80 ([18]; 48 h): >1000 µM; MIC/IC80 ([19]; CK1, 24 h): >1000 µM; MIC/IC80 ([19]; CK1, 48 h): >1000 µM

Source: US8785655B2, “Ionic liquid solvents” (Dublin City University, priority 2009, dated 2014)
